Experimental data reported in publication PMC6234689 (International Journal of Retina and Vitreous, 2018).

How the values were obtained:
rabbit retina [1] = conditions: intravitreal 40 µg/50 µL, 24, 48, 72 and 168 h
Protocol: (§1) Baseline electroretinogram (ERG) was obtained for rabbits prior the intravitreal injection as the method described below. […] The effective dose was calculated from the previous study performed in our lab.

rabbit retina [2] = test: Fundus imaging after intravitreal injection; type: in vivo, New Zealand rabbits; conditions: intravitreal 40 µg/0.05 ml, observational period of 7 days
Protocol: as §1
Following Electroretinogram (ERG) study, rabbit retina was focused and fundus images of both eyes were recorded using streampix software using MICRON III rodent imaging system (Phoenix Lab, USA) after subjecting them for ERG.

[3] = Stability of intravitreal formulation after thermal sterilization by autoclaving; type: physicochemical; conditions: 0.08% w/v in sterile saline, concentration before and after autoclaving
Description: After checking it for pH, it was filled, sealed in glass ampoules and subjected for autoclaving.

[4] = rabbit, intravitreal 40 µg/50 µL
[5] = test system: progression of retinopathy; set-up: method as in PMID 9726242; conditions: EUCLID Study, diabetic patients; cited from earlier work
in vivo = conditions: New Zealand, rabbit, 40 µg

NCCCC[C@H](N[C@@H](CCc1ccccc1)C(=O)O)C(=O)N1CCC[C@H]1C(=O)O [lisinopril]
'a' and 'b' wave amplitude of ERG compared to baseline (rabbit retina [1]): No changes were observed
morphological changes in the retina on fundus images (rabbit retina [2]): no significant morphological changes
stability of formulation after thermal sterilization by autoclaving [3]: stable
lisinopril concentration in retina-choroid (highest) ([4]; at 1 h): 7 µg
lisinopril concentration in the vitreous humour (highest) ([4]; at 1 h): 14.52 µg
maximum concentration in sclera ([4]; at 2 h): 6.6 µg
reduction of the risk of progression of retinopathy [5]: approximately 50%
half-life (in vivo; in vivo): 12.6 h
half-life (in vivo; vitreous humour): 41.5 h
